Results published in ChEMBL document CHEMBL4011581, “Interference with bile salt export pump function is a susceptibility factor for human liver injury in drug development” (Toxicol Sci, 2010).
Counter-ions that a name gives are not always drawn.

Molecular target: T1, Bile salt export pump (Homo sapiens, UniProt O95342)
Experiment: Inhibition of human BSEP expressed in fall armyworm sf9 cell membrane vesicles assessed as reduction in ATP-dependent [3H]-taurocholic acid uptake preincubated for 30 mins prior to [3H]-taurocholic acid addition by liquid scintillation counting
Type: ADME

SMILES | IC50 [µM]
CC(C)C(=O)Nc1ccc([N+](=O)[O-])c(C(F)(F)F)c1 [FLUTAMIDE] | 50

Molecular target: T1, Bile salt export pump
Experiment: Inhibition of BSEP in human hepatocytes assessed as reduction in biliary excretion of [3H]-taurocholate in cell lysates after 15 mins by liquid scintillation counting
Type: ADME, cell-based, Lysate

SMILES | IC50 [µM]
CC(C)C(=O)Nc1ccc([N+](=O)[O-])c(C(F)(F)F)c1 [FLUTAMIDE] | 75

Molecular target: T1, Bile salt export pump
Experiment: Inhibition of BSEP in human hepatocytes assessed as reduction in biliary excretion of [3H]-taurocholate in cell lysates at 10 to 100 uM after 15 mins by liquid scintillation counting relative to control
Type: ADME, cell-based, Lysate

SMILES | Imax [%]
CC(C)C(=O)Nc1ccc([N+](=O)[O-])c(C(F)(F)F)c1 [FLUTAMIDE] | 20

Molecular target: T1, Bile salt export pump
Experiment: (§1) Inhibition of human BSEP expressed in fall armyworm sf9 cell membrane vesicles assessed as reduction in vesicle-associated [3H]-taurocholate at 133 uM preincubated for 10 mins prior to ATP addition measured after 15 mins in presence of [3H]-taurocholate by topcount based membrane vesicle transport assay relative to control
Type: ADME

SMILES | Imax [%]
CC(C)C(=O)Nc1ccc([N+](=O)[O-])c(C(F)(F)F)c1 [FLUTAMIDE] | 50

Molecular target: T1, Bile salt export pump
Experiment: as §1, with “cell plasma” for “cell”, “transport” for “at 133 uM”, “assay” for “assay relative to control”
Type: ADME

SMILES | IC50 [µM]
CC(C)C(=O)Nc1ccc([N+](=O)[O-])c(C(F)(F)F)c1 [FLUTAMIDE] | > 135
CCC(=O)O[C@H]1[C@H](O[C@@H]2[C@@H](C)[C@H](O[C@H]3C[C@@](C)(OC)[C@@H](O)[C@H](C)O3)[C@@H](C)C(=O)O[C@H](CC)[C@@](C)(O)[C@H](O)[C@@H](C)C(=O)[C@H](C)C[C@@]2(C)O)O[C@H](C)C[C@@H]1N(C)C [ERYTHROMYCIN ESTOLATE] | 13
Nc1nc(O)c2ncn(COC(CO)CO)c2n1 [GANCICLOVIR] | > 135
C[C@@H]1C[C@H]2[C@@H]3CCC4=CC(=O)C=C[C@]4(C)[C@@]3(F)[C@@H](O)C[C@]2(C)[C@@]1(O)C(=O)CO [DEXAMETHASONE] | > 135
COc1ccccc1Oc1c(NS(=O)(=O)c2ccc(C(C)(C)C)cc2)nc(-c2ncccn2)nc1OCCO [BOSENTAN] | 22
C=C[C@H]1C[N@@]2CC[C@H]1C[C@@H]2[C@@H](O)c1ccnc2ccc(OC)cc12 [QUINIDINE] | > 135
CCN(CC)CCNC(=O)c1cc(Cl)c(N)cc1OC [METOCLOPRAMIDE] | > 135
CCc1oc2ccccc2c1C(=O)c1cc(Br)c(O)c(Br)c1 [BENZBROMARONE] | 17.5
CC1Cc2ccccc2N1NC(=O)c1ccc(Cl)c(S(N)(=O)=O)c1 (centres undefined) [INDAPAMIDE] | > 135
Cc1ccc(C(=O)c2cc(O)c(O)c([N+](=O)[O-])c2)cc1 [TOLCAPONE] | 34.5
C(=C\c1ccccc1)/CN1CCN(C(c2ccccc2)c2ccccc2)CC1 [CINNARIZINE] | 15.7
O=P1(N(CCCl)CCCl)NCCCO1 (centres undefined) [CYCLOPHOSPHAMIDE ANHYDROUS] | > 135
O=C(NC1CCN(CCc2c[nH]c3ccccc23)CC1)c1ccccc1 [INDORAMIN] | > 135
CNCCCN1c2ccccc2CCc2ccccc21 [DESIPRAMINE] | > 135
CC1=C(CC(=O)O)c2cc(F)ccc2/C1=C\c1ccc([S+](C)[O-])cc1 (centres undefined) | > 135
O=C(O)CCNC(=O)c1ccccc1 [BETAMIPRON] | > 135
Cc1c(C)c2c(c(C)c1O)CCC(C)(COc1ccc(CC3SC(=O)NC3=O)cc1)O2 (centres undefined) [TROGLITAZONE] | 5.9
Cc1cccc(C)c1OCC(=O)N[C@@H](Cc1ccccc1)[C@@H](O)C[C@H](Cc1ccccc1)NC(=O)[C@H](C(C)C)N1CCCNC1=O [LOPINAVIR] | 17.3
CN(Cc1cnc2nc(N)nc(N)c2n1)c1ccc(C(=O)N[C@@H](CCC(=O)O)C(=O)O)cc1 [METHOTREXATE] | > 135
ClC(Cl)(Cl)Cl [CARBON TETRACHLORIDE] | > 135
Cc1noc(NS(=O)(=O)c2ccc(N)cc2)c1C [SULFISOXAZOLE] | > 135
O=C(O)CCCc1ccc(N(CCCl)CCCl)cc1 [CHLORAMBUCIL] | > 135
CC(=O)O[C@H]1C[C@@]2(C)[C@@H](C[C@@H](O)[C@H]3[C@@]4(C)CC[C@@H](O)[C@@H](C)[C@@H]4CC[C@@]32C)/C1=C(\CCC=C(C)C)C(=O)O [FUSIDIC ACID] | 10.1
CNC(=O)c1cc(Oc2ccc(NC(=O)Nc3ccc(Cl)c(C(F)(F)F)c3)cc2)ccn1 [SORAFENIB] | 8
CN(C)CCC=C1c2ccccc2CCc2ccccc21 [AMITRIPTYLINE] | > 135
CCOC(=O)C1=C(C)NC(C)=C(C(=O)OC)C1c1cccc([N+](=O)[O-])c1 (centres undefined) [NITRENDIPINE] | 25 to 45
Cc1ccc(-c2ncc(Cl)cc2-c2ccc(S(C)(=O)=O)cc2)cn1 [ETORICOXIB] | 45 to 60

SMILES | IC50 [µM]
CCCCNC(=O)NS(=O)(=O)c1ccc(C)cc1 [TOLBUTAMIDE] | > 135
CCCc1nc2c(C)cc(-c3nc4ccccc4n3C)cc2n1Cc1ccc(-c2ccccc2C(=O)O)cc1 | 16.2
CS(=O)(=O)c1ccc(C2=C(c3ccccc3)C(=O)OC2)cc1 [ROFECOXIB] | > 135
NS(=O)(=O)Cc1noc2ccccc12 [ZONISAMIDE] | > 135
CC[C@]1(O)C[C@@H]2CN(CCc3c([nH]c4ccccc34)[C@@](C(=O)OC)(c3cc4c(cc3OC)N(C)[C@H]3[C@@](O)(C(=O)OC)[C@H](OC(C)=O)[C@]5(CC)C=CCN6CC[C@]43[C@@H]65)C2)C1 [VINBLASTINE] | > 135
CCOc1ccc(NC(C)=O)cc1 [PHENACETIN] | > 135
COC(=O)[C@H]1[C@H]2C[C@@H]3c4[nH]c5cc(OC)ccc5c4CCN3C[C@H]2C[C@@H](OC(=O)c2cc(OC)c(OC)c(OC)c2)[C@@H]1OC [RESERPINE] | 8.4
O=c1[nH]cc(F)c(=O)[nH]1 [FLUOROURACIL] | > 135
CCOC(=O)C(C)(C)Oc1ccc(Cl)cc1 [CLOFIBRATE] | 60 to 75
NNC(=O)c1ccncc1 [ISONIAZID] | > 135
O=P(O)(O)C(O)(Cn1ccnc1)P(=O)(O)O [ZOLEDRONIC ACID] | > 135
CCc1nn(CCCN2CCN(c3cccc(Cl)c3)CC2)c(=O)n1CCOc1ccccc1 [NEFAZODONE] | 6.1
OCCN1CCN(CCCN2c3ccccc3Sc3ccc(Cl)cc32)CC1 [PERPHENAZINE] | > 135
Nc1ccc(S(=O)(=O)Nc2ncccn2)cc1 [SULFADIAZINE] | > 135
Nc1nc(N)c2nc(-c3ccccc3)c(N)nc2n1 | > 135
C=C[C@H]1C[N@@]2CC[C@H]1C[C@H]2[C@H](O)c1ccnc2ccc(OC)cc12 [QUININE] | > 135
CC(=O)[C@H]1[C@H](C#N)C[C@H]2[C@@H]3CC=C4CC(O)CC[C@]4(C)[C@H]3CC[C@@]21C (some centres undefined) | > 135
CCN(CC)CCOc1ccc2c(c1)C(=O)c1cc(OCCN(CC)CC)ccc1-2 [TILORONE] | > 135
CS(=O)(=O)OCCCCOS(C)(=O)=O [BUSULFAN] | > 135
CC(C)(Oc1ccc(C2CC2(Cl)Cl)cc1)C(=O)O (centres undefined) [CIPROFIBRATE] | > 135
CCCCCC[C@H]1C(=O)O[C@H](C)[C@H](NC(=O)c2cccc(NC=O)c2O)C(=O)O[C@@H](C)[C@@H]1OC(=O)CC(C)C [ANTIMYCIN A] | 45 to 60
CC(C)OC(=O)C(C)(C)Oc1ccc(C(=O)c2ccc(Cl)cc2)cc1 [FENOFIBRATE] | 15.3
COc1cc2c3cc1Oc1cc(ccc1O)C[C@@H]1c4c(cc(OC)c(O)c4Oc4ccc(cc4)C[C@@H]3N(C)CC2)CC[N+]1(C)C [TUBOCURARINE] | > 135
CCOC(=O)Nc1ccc(NCc2ccc(F)cc2)nc1N [FLUPIRTINE] | 35.5
CCOC(=O)c1ncn2c1CN(C)C(=O)c1cc(F)ccc1-2 [FLUMAZENIL] | > 135
[H]/N=C(/N)N/C(=N/[H])NCCc1ccccc1 [PHENFORMIN] | > 135
C[C@H]1C[C@@H]2[C@H]([C@@H](O)C[C@@]3(C)[C@H]2CC[C@]3(O)C(=O)CO)[C@@]2(C)C=CC(=O)C=C12 [METHYLPREDNISOLONE] | > 135

SMILES | IC50 [µM]
COc1ccc(Cl)cc1[C@]1(F)C(=O)Nc2cc(C(F)(F)F)ccc21 [FLINDOKALNER] | > 135
Cc1c(OCC(F)(F)F)ccnc1C[S+]([O-])c1nc2ccccc2[nH]1 (centres undefined) [LANSOPRAZOLE] | > 135
O=c1c(O)c(-c2ccc(O)c(O)c2)oc2cc(O)cc(O)c12 [QUERCETIN] | > 135
CCC(C)n1ncn(-c2ccc(N3CCN(c4ccc(OCC5COC(Cn6cncn6)(c6ccc(Cl)cc6Cl)O5)cc4)CC3)cc2)c1=O (centres undefined) [ITRACONAZOLE] | 18
CC(C)N(CCC(C(N)=O)(c1ccccc1)c1ccccn1)C(C)C (centres undefined) [DISOPYRAMIDE] | > 135
CN(C)CCC(c1ccc(Cl)cc1)c1ccccn1 (centres undefined) [CHLORPHENIRAMINE] | > 135
Cc1cc(=O)n(-c2ccccc2)n1C [ANTIPYRINE] | > 135
O=c1n(CCCN2CCN(c3cccc(Cl)c3)CC2)nc2ccccn12 [TRAZODONE] | > 135
CN(C)CCCN1c2ccccc2Sc2ccc(Cl)cc21 [CHLORPROMAZINE] | > 135
COCC(=O)O[C@]1(CCN(C)CCCc2nc3ccccc3[nH]2)CCc2cc(F)ccc2[C@@H]1C(C)C [MIBEFRADIL] | 25 to 45
COc1ccc2c3c1O[C@H]1C[C@@H](O)C=C[C@@]31CCN(C)C2 [GALANTAMINE] | > 135
C#CCN(C)[C@H](C)Cc1ccccc1 [SELEGILINE HYDROCHLORIDE] | > 135
O=C(O)c1ccccc1-c1c2ccc(=O)cc-2oc2cc(O)ccc12 | > 135
COc1ccc2[nH]c([S+]([O-])Cc3ncc(C)c(OC)c3C)nc2c1 (centres undefined) [OMEPRAZOLE] | 75 to 105
S=P(N1CC1)(N1CC1)N1CC1 [THIOTEPA] | > 135
Cc1ccc(NC(=O)c2ccc(CN3CCN(C)CC3)cc2)cc1Nc1nccc(-c2cccnc2)n1 [IMATINIB] | 25.1
CNC1(c2ccccc2Cl)CCCCC1=O (centres undefined) [KETAMINE] | > 135
Nc1c2c(nc3ccccc13)CCCC2 [TACRINE] | > 135
CN[C@@H]1C[C@H]2O[C@@](C)([C@@H]1OC)n1c3ccccc3c3c4c(c5c6ccccc6n2c5c31)C(=O)NC4 [STAUROSPORINE] | 18.7
Cc1nccn1CC1CCc2c(c3ccccc3n2C)C1=O (centres undefined) [ONDANSETRON] | > 135
Cc1ncc2n1-c1ccc(Cl)cc1C(c1ccccc1F)=NC2 [MIDAZOLAM] | 41.7
CC(C)(C)NCC(O)COc1cccc2c1CC(O)C(O)C2 (centres undefined) [NADOLOL] | > 135
CC(CN1c2ccccc2Sc2ccccc21)N(C)C (centres undefined) [PROMETHAZINE] | > 135
Nc1nc2c(ncn2COCCO)c(=O)[nH]1 [ACYCLOVIR] | > 135
CC(=O)Oc1ccccc1C(=O)O [ASPIRIN] | > 135

Molecular target: T1, Bile salt export pump
Experiment: Inhibition of human BSEP expressed in fall armyworm sf9 cell membrane vesicles assessed as reduction in ATP-dependent [3H]-taurocholic acid uptake at 100 uM preincubated for 30 mins prior to [3H]-taurocholic acid addition by liquid scintillation counting relative to control
Type: ADME

SMILES | Imax [%]
CC(C)C(=O)Nc1ccc([N+](=O)[O-])c(C(F)(F)F)c1 [FLUTAMIDE] | 40 to 50
